The target of this assay is Factor D (Homo sapiens, UniProt P00746). Description: Factor D esterolytic assay (Z-Lys-SBzl thioester substrate, DTNB, 405 nm). The format is biochemical. The note with it: substrate Z-Lys-SBzl 1.29 mM, 100 mM HEPES, 500 mM NaCl, pH 7.5, 10% DMSO, tested a minimum of three times. In short, it runs like this: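 Human Factor D hydrolysis of Z-Lys-SBzl (1.29 mM) monitored at 405 nm via DTNB thiol detection for 600 s, 690 nm background subtracted. Buffer 100 mM HEPES, 500 mM NaCl, pH 7.5, 10% DMSO; substrate added immediately or after room-temperature preincubation. IC50 from percent inhibition of rate, at least three tests.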
Factor D, sequence (P00746 26-253): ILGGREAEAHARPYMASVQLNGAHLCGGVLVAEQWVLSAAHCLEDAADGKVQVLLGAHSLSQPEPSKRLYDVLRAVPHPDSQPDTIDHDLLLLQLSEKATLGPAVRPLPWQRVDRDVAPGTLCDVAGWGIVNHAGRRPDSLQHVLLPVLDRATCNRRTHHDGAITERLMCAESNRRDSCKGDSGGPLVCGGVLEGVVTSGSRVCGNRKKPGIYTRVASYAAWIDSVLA
Consider `Cc1nc(C(F)(F)F)cc2c3c(N)ncnc3n(CC(=O)N3[C@H](C(=O)Nc4cccc(Br)n4)C[C@@]4(C)C[C@@H]34)c12` [Compound 347a, (1R,3S,5R)-2-(2-(4-amino-8-methyl-6-(trifluoromethyl)-9H-pyrido[4′,3′:4,5]pyrrolo[2,3-d]pyrimidin-9-yl)acetyl)-N-(6-bromopyridin-2-yl)-5-methyl-2-azabicyclo[3.1.0]hexane-3-carboxamide], for which the IC50 (in general, the point on the concentration scale where inhibition reaches its midpoint) was below 0.1 µM.

For the compound `COc1cccc(-c2cc(C)c3c(c2)c2c(N)ncnc2n3CC(=O)N2[C@H](C(=O)Nc3cccc(Br)n3)C[C@@]3(C)C[C@@H]23)c1` [Compound 342a, (1R,3S,5R)-2-(2-(4-amino-6-(3-methoxyphenyl)-8-methyl-9H-pyrimido[4,5-b]indol-9-yl)acetyl)-N-(6-bromopyridin-2-yl)-5-methyl-2-azabicyclo[3.1.0]hexane-3-carboxamide], the IC50 was below 0.1 µM.

As to `Nc1ncnc2ccc(CC(=O)N3C[C@H](F)C[C@H]3C(=O)NCc3cccc(Cl)c3F)cc12` [Compound 294c, (2S,4R)-1-(2-(4-aminoquinazolin-6-yl)acetyl)-N-(3-chloro-2-fluorobenzyl)-4-fluoropyrrolidine-2-carboxamide], the IC50 is above 1 µM.

For `O=C(NCc1cccc(Cl)c1F)[C@@H]1C[C@@H](F)CN1C(=O)Cn1ccc2c3[nH]c(=O)[nH]c(=O)c3cnc21` [Compound 145a, (2S,4R)—N-(3-chloro-2-fluorobenzyl)-1-(2-(2,4dioxo-3,4dihydro-1H-pyrrolo[3′,2′:5,6]pyrido[4,3-d]pyrimidin-7 (2H)-yl)acetyl)-4-fluoropyrrolidine-2-carboxamide], the IC50 lay in the range of 0.1 to 1 µM.

Consider `N#C[C@@H]1C[C@@H](C(=O)Nc2cccc(Br)n2)N(C(=O)Cn2c3ccc(C(F)(F)F)cc3c3c(N)ncnc32)C1` [Compound 178d, (2S,4R)-1-(2-(4-amino-6-(trifluoromethyl)-9H-pyrimido[4,5-b]indol-9-yl)acetyl)-N-(6-bromopyridin-2-yl)-4-cyanopyrrolidine-2-carboxamide], for which the IC50 is 0.1 to 1 µM.

On to `Nc1ncnc2c1c1cc(F)ccc1n2CC(=O)N1[C@@H]2C[C@@H]2C[C@H]1C(=O)Nc1cccc(Br)n1` [Compound 32f, (1R,3S,5R)-2-(2-(4-amino-6-fluoro-9H-pyrimido[4,5-b]indol-9-yl)acetyl)-N-(6-bromopyridin-2-yl)-2-azabicyclo[3.1.0]hexane-3-carboxamide], for which the IC50 was below 0.1 µM.

Take `NC[C@H]1C[C@@H](C(=O)Nc2cccc(Br)n2)N(C(=O)Cn2c3ccc(C(F)(F)F)cc3c3c(N)ncnc32)C1` [Compound 212e, (2S,4R)-1-(2-(4-amino-6-(trifluoromethyl)-9H-pyrimido[4,5-b]indol-9-yl)acetyl)-4-(aminomethyl)-N-(6-bromopyridin-2-yl)pyrrolidine-2-carboxamide]: the IC50 fell in the range of 0.1 to 1 µM.

For `CC(C)(C)OC(=O)Nc1ccc2c3c(N)ncnc3n(CC(=O)N3[C@@H]4C[C@@H]4C[C@H]3C(=O)Nc3cccc(Br)n3)c2c1` [Compound 17f, tert-butyl (4-amino-9-(2-((1R,3S,5R)-3-((6-bromopyridin-2-yl)carbamoyl)-2-azabicyclo[3.1.0]hexan-2-yl)-2-oxoethyl)-9H-pyrimido[4,5-b]indol-7-yl)carbamate], the IC50 is below 0.1 µM.

As for `Nc1ncc2ncn(CC(=O)N3[C@@H]4C[C@@H]4C[C@H]3C(=O)Nc3cccc(Br)n3)c2n1` [Compound 89b, (1R,3S,5R)-2-(2-(2-amino-9H-purin-9-yl)acetyl)-N-(6-bromopyridin-2-yl)-2-azabicyclo[3.1.0]hexane-3-carboxamide], the IC50 lay within 0.1 to 1 µM.

As to `Cc1ncc(-c2cc(C)c3c(c2)c2c(N)ncnc2n3CC(=O)N2[C@@H]3C[C@@H]3C[C@H]2C(=O)Nc2cccc(Br)n2)cn1` [Compound 308c, (1R,3S,5R)-2-(2-(4-amino-8-methyl-6-(2-methylpyrimidin-5-yl)-9H-pyrimido[4,5-b]indol-9-yl)acetyl)-N-(6-bromopyridin-2-yl)-2-azabicyclo[3.1.0]hexane-3-carboxamide], the IC50 is below 0.1 µM.

Regarding `Cc1ccc(Cl)nc1NC(=O)[C@@H]1C[C@H]2C[C@H]2N1C(=O)Cn1c2ncnc(N)c2c2cc(C(F)(F)F)cc(C)c21` [Compound 318c, (1R,3S,5R)-2-(2-(4-amino-8-methyl-6-(trifluoromethyl)-9H-pyrimido[4,5-b]indol-9-yl)acetyl)-N-(6-chloro-3-methylpyridin-2-yl)-2-azabicyclo[3.1.0]hexane-3-carboxamide], the IC50 is below 0.1 µM.

Regarding `Cc1ccc(Br)nc1NC(=O)[C@@H]1C[C@@]2(C)C[C@H]2N1C(=O)Cn1cnc2c(N)ncnc21` [Compound 113a, (1R,3S,5R)-2-(2-(6-amino-9H-purin-9-yl)acetyl)-N-(6-bromo-3-methylpyridin-2-yl)-5-methyl-2-azabicyclo[3.1.0]hexane-3-carboxamide], the IC50 was 0.1 to 1 µM.

Regarding `NCc1ccc2c(c1)c1c(N)ncnc1n2CC(=O)N1[C@@H]2C[C@@H]2C[C@H]1C(=O)Nc1cccc(Br)n1` [Compound 63d, (1R,3S,5R)-2-(2-(4-amino-6-(aminomethyl)-9H-pyrimido[4,5-b]indol-9-yl)acetyl)-N-(6-bromopyridin-2-yl)-2-azabicyclo[3.1.0]hexane-3-carboxamide], the IC50 is below 0.1 µM.

For `Nc1ncnc2c1c1nc(C(F)(F)F)ccc1n2CC(=O)N1[C@@H]2C[C@@H]2C[C@H]1C(=O)Nc1cccc(Br)n1` [Compound 234a, (1R,3S,5R)-2-(2-(4-amino-6-(trifluoromethyl)-9H-pyrido[2′,3′:4,5]pyrrolo[2,3-d]pyrimidin-9-yl)acetyl)-N-(6-bromopyridin-2-yl)-2-azabicyclo[3.1.0]hexane-3-carboxamide], the IC50 is below 0.1 µM.

Turning to `COc1cccc2c3c(N)ncnc3n(CC(=O)N3[C@@H]4C[C@@H]4C[C@H]3C(=O)Nc3cccc(Br)n3)c12` [Compound 54g, (1R,3S,5R)-2-(2-(4-amino-8-methoxy-9H-pyrimido[4,5-b]indol-9-yl)acetyl)-N-(6-bromopyridin-2-yl)-2-azabicyclo[3.1.0]hexane-3-carboxamide], the IC50 was below 0.1 µM.

Turning to `Nc1ncnc2c1c1cc(C(F)(F)F)ccc1n2CC(=O)N1c2ccccc2C[C@H]1C(=O)Nc1cccc(Br)n1` [Compound 179d, (S)-1-(2-(4-amino-6-(trifluoromethyl)-9H-pyrimido[4,5-b]indol-9-yl)acetyl)-N-(6-bromopyridin-2-yl)indoline-2-carboxamide], the IC50 is above 1 µM.

For the compound `CNC(=O)Nc1ccc2c(c1)c1c(N)ncnc1n2CC(=O)N1[C@@H]2C[C@@H]2C[C@H]1C(=O)Nc1cccc(Br)n1` [Compound 297d, (1R,3S,5R)-2-(2-(4-amino-6-(3-methylureido)-9H-pyrimido[4,5-b]indol-9-yl)acetyl)-N-(6-bromopyridin-2-yl)-2-azabicyclo[3.1.0]hexane-3-carboxamide], the IC50 is below 0.1 µM.

For the compound `Cc1cc(O)cc2c3c(N)ncnc3n(CC(=O)N3[C@@H]4C[C@@H]4C[C@H]3C(=O)Nc3cccc(Br)n3)c12` [Compound 282a, (1R,3S,5R)-2-(2-(4-amino-6-hydroxy-8-methyl-9H-pyrimido[4,5-b]indol-9-yl)acetyl)-N-(6-bromopyridin-2-yl)-2-azabicyclo[3.1.0]hexane-3-carboxamide], the IC50 was below 0.1 µM.

As to `Nc1ncnc2c1c(C(=O)O)cn2CC(=O)N1C[C@H](F)C[C@H]1C(=O)NCc1cccc(Cl)c1F` [Compound 153a, 4-amino-7-(2-((2S,4R)-2-((3-chloro-2-fluorobenzyl)carbamoyl)-4-fluoropyrrolidin-1-yl)-2-oxoethyl)-7H-pyrrolo[2,3-d]pyrimidine-5-carboxylic acid], the IC50 is above 1 µM.

Consider `C[C@@]12C[C@@H](C(=O)Nc3cccc(Br)n3)N(C(=O)Cn3c4ncnc(N)c4c4cccc(-c5ccccc5)c43)[C@@H]1C2` [Compound 245a, (1R,3S,5R)-2-(2-(4-amino-8-phenyl-9H-pyrimido[4,5-b]indol-9-yl)acetyl)-N-(6-bromopyridin-2-yl)-5-methyl-2-azabicyclo[3.1.0]hexane-3-carboxamide], for which the IC50 is below 0.1 µM.

Consider `CCOC(=O)CCc1ccc2c(c1)c1c(N)ncnc1n2CC(=O)N1[C@@H]2C[C@@H]2C[C@H]1C(=O)Nc1cccc(Br)n1` [Compound 45d, ethyl 3-(4-amino-9-(2-((1R,3S,5R)-3-((6-bromopyridin-2-yl)carbamoyl)-2-azabicyclo[3.1.0]hexan-2-yl)-2-oxoethyl)-9H-pyrimido[4,5-b]indol-6-yl)propanoate], for which the 50% inhibitory concentration (IC50) is below 0.1 µM.

`CCc1ccc2c(c1)c1c(N)ncnc1n2CC(=O)N1[C@@H]2C[C@@H]2C[C@H]1C(=O)Nc1cccc(Br)n1` [Compound 187c, (1R,3S,5R)-2-(2-(4-amino-6-ethyl-9H-pyrimido[4,5-b]indol-9-yl)acetyl)-N-(6-bromopyridin-2-yl)-2-azabicyclo[3.1.0]hexane-3-carboxamide]: the IC50 is below 0.1 µM.

Consider `C[C@@]12C[C@@H](C(=O)Nc3cccc(Br)n3)N(C(=O)Cn3c4cc(Br)ccc4c4c(N)ncnc43)[C@@H]1C2` [Compound 200a, (1R,3S,5R)-2-(2-(4-amino-7-bromo-9H-pyrimido[4,5-b]indol-9-yl)acetyl)-N-(6-bromopyridin-2-yl)-5-methyl-2-azabicyclo[3.1.0]hexane-3-carboxamide], for which the IC50 was below 0.1 µM.

For the compound `Cc1cc(O)cc2c3c(N)ncnc3n(CC(=O)N3[C@H](C(=O)Nc4cccc(Br)n4)C[C@@]4(C)C[C@@H]34)c12` [Compound 265a, (1R,3S,5R)-2-(2-(4-amino-6-hydroxy-8-methyl-9H-pyrimido[4,5-b]indol-9-yl)acetyl)-N-(6-bromopyridin-2-yl)-5-methyl-2-azabicyclo[3.1.0]hexane-3-carboxamide], the IC50 is below 0.1 µM.

For the origin of these results see patent US12679843B2, “Pyrrolopyrimidine amines as complement inhibitors” (BioCryst Pharmaceuticals, Inc., priority 2020, dated 2026).
